Measurements published in patent US20230072860A1, “ISOXAZOLINE OXIME FORMATE COMPOUND, PREPARATION METHOD THEREFOR, HERBICIDAL COMPOSITION AND USE THEREOF” (QINGDAO KINGAGROOT CHEMICAL COMPOUND CO., LTD., priority 2020, published 2023).

System: Echinochloa crusgalli, Scirpus juncoides, Bidens tripartita L. and Sagittaria trifolia
Experiment: Weed control effect evaluation in rice field
Assay type: in vivo
Conditions: weeds collected from Heilongjiang Province of China
Experimental: Transplanted rice safety evaluation and weed control effect evaluation in rice field:
Rice field soil was loaded into a 1/1,000,000 ha pot. The seeds of Echinochloa crusgalli, Scirpus juncoides, and Bidens tripartita L. were sowed and gently covered with soil, then left to stand still in greenhouse in the state of 0.5-1 cm of water storage. The tuber of Sagittaria trifolia was planted in the next day or 2 days later. It was kept at 3-4 cm of water storage thereafter. The weeds were treated by dripping the WP or SC water diluents prepared according to the common preparation method of the compounds of the present invention with pipette homogeneously to achieve specified effective amount when Echinochloa crusgalli, Scirpus juncoides, and Bidens tripartita L. reached 0.5 leaf stage and Sagittaria trifolia reached the time point of primary leaf stage.
The fertility condition of Echinochloa crusgalli, Scirpus juncoides, Bidens tripartita L. and Sagittaria trifolia 14 days after the treatment of the compound of the invention and the fertility condition of rice 21 days after the treatment of the compound of the invention respectively with the naked eye. Evaluate the weed control effect with the above activity standard level. Many compounds show excellent activity and selectivity. […]

With CCOC(=O)c1cnn(C)c1S(=O)(=O)NC(=O)Nc1nc(OC)cc(OC)n1 [Pyrazosulfuron-ethyl] the “response of the test weeds to common doses” value was “resistant”.
